In PMC7412250, “Novel Chrysin-De-Allyl PAC-1 Hybrid Analogues as Anticancer Compounds: Design, Synthesis, and Biological Evaluation” (Molecules, 2020):

Assays:
MDA-MB-231 cells [1] = assay: Morphological observation of cells; format: cell-based, human; settings: 20 µM
Method: Figure 3 Effects of 4g and 4i on cellular morphology, mitochondrial membrane potential, and cell cycle (A) Morphological observations of MDA-MB-231 cells incubated with 0, 5, and 20 µM concentrations of 4g and 4i at different time intervals of 0, 24, 48, and 72 h, respectively; (B) The MDA-MB-231 cells in complete medium were incubated with 4g and 4i at 0, 5, or 10 µM for 24 h. Cells were then incubated with the reagents of the MitoTracker Red and Alexa Fluor 488 annexin V kits for flow cytometry. Representative results of MDA-MB-231 cells from two independent experiments, each performed in triplicate, are shown; (C) Histograms quantitatively summarize the results following incubation with 4g and 4i, respectively; (D) The induction of cell cycle arrest in MDA-MB-231 cells by 4g and 4i is shown. The MDA-MB-231 cells were incubated with different concentrations (0, 5, and 10 µM) of 4g and 4i for 24 h and were subjected to cell cycle analysis by flow cytometry of PI (X axis)/cell counts (Y axis); (E) A histogram quantitatively summarizing the change in % of cells in each phase of the cell cycle due to incubation with 4g and 4i. The data represents means ± SEM of three independent experiments performed in triplicate with **** p < 0.0001 vs. control group. […]

MDA-MB-231 cells [2] = assay: Western blot of apoptotic proteins (Bak, cytochrome c, caspase-7, caspase-9, mTOR); format: cell-based, human; settings: for caspase 7 activation / cleavage of the initiator caspase, caspase 9 / expression of cytochrome c: compared to vehicle; for mTOR expression: 5 or 10 µM; for expression of Bak: compared to cells incubated in the absence of lead compounds
Method: To measure the expression of Bak, cytochrome c, caspase-7, caspase-9, and mTOR, Western blotting was performed by lysing MDA-MB-231 cells using a lysis buffer (50 mM Tris–HCl, 150 mM NaCl, 1 mM EDTA, 0.5% NP-40, 1% Triton, 0.1% SDS) containing a protease inhibitor cocktail that consisted of Aprotinin, Bestatin, E-64, Leupeptin, and Pepstatin A (Sigma-Aldrich Life Science, St. Louis, MO, USA). The bicinchoninic acid (BCA) quantification assay was used to determine the protein levels in the cell extracts (G-BIOSCIENCES, St. Louis, MO, USA). The extracted proteins were loaded onto a 10–20% tris-glycine gel. After separation, the proteins were transferred from the gel onto a polyvinylidene difluoride (PVDF) membrane. The membranes were blocked using 5% milk in Tris-buffered saline Tween 20 for 30 min and incubated overnight with primary antibodies against Bak (1:1000), cytochrome C (1:1000), caspase-3 (1:1000), caspase 7 (1:1000), caspase 9 (1:1000), mTOR (1:1000), or B-actin (1:2000) in 5% BSA (bovine serum albumin) at 4 °C. The next day, membranes were washed and incubated with horseradish peroxidase-labelled (HRP) anti-rabbit secondary antibody (1:5000 dilutions). The membrane was incubated with the antibody for an additional 1 h. Subsequently, the membranes were washed and developed by Clarity Western ECL substrate (Bio-Rad; Hercules, CA, USA). Protein was detected using a ChemiDoc Imaging System (Bio-Rad). Densitometry analyses of the blots for the detected protein were quantified using the ImageJ software. Data was calculated as ratios of protein/β-actin.

| Compound | cellular morphology (MDA-MB-231 cells [1]) | caspase 7 activation (MDA-MB-231 cells [2]; 10 µM) | cleavage of the initiator caspase, caspase 9 (MDA-MB-231 cells [2]; 10 µM) | expression of cytochrome c (MDA-MB-231 cells [2]; 10 µM) | mTOR expression (MDA-MB-231 cells [2]) | expression of Bak (MDA-MB-231 cells [2]) | cleavage of the initiator caspase, caspase 9 (MDA-MB-231 cells [2]; 5 µM) | expression of cytochrome c (MDA-MB-231 cells [2]; 5 µM) | caspase 7 activation (MDA-MB-231 cells [2]; both concentrations (5 and 10 µM)) |
| --- | --- | --- | --- | --- | --- | --- | --- | --- | --- |
| O=C(COc1cc(O)c2c(=O)cc(-c3ccccc3)oc2c1)N/N=C/c1ccc(O)c(O)c1O [Compound 4i, (E,Z)-2-((5-Hydroxy-4-oxo-2-phenyl-4H-chromen-7-yl)oxy)-N’-(2,3,4-trihydroxybenzylidene)acetohydrazide] | decreased the number of adherent MDA-MB-231 cells and induced cellular shrinkage | activated caspase 7 | significant cleavage | significant increase | no significant change | increase | – | – | – |
| O=C(COc1cc(O)c2c(=O)cc(-c3ccccc3)oc2c1)N/N=C/c1ccc(O)cc1O [Compound 4g, (E,Z)-N’-(2,4-Dihydroxybenzylidene)-2-((5-hydroxy-4-oxo-2-phenyl-4H-chromen-7-yl)oxy)acetohydrazide] | decreased the number of adherent MDA-MB-231 cells and induced cellular shrinkage | – | – | – | no significant change | increase | significant cleavage | significant increase | activated caspase 7 |
